This data set is described as follows: Solubility in organic solvents. Particulars: in solvents such as THF, toluene, cyclohexane and dichloromethane. Type of data set: physicochemical.

For `CCCCCCCCc1ccc(CCCCCCCC)c2c1-c1nc-2nc2[nH]c(nc3nc(nc4[nH]c(n1)c1ccncc41)-c1c(CCCCCCCC)ccc(CCCCCCCC)c1-3)c1c(CCCCCCCC)ccc(CCCCCCCC)c21` [1a, 1,4,8,11,15,18-(hexaoctyl)tribenzo-3,4-pyridinoporphyrazine], the solubility entry is “good solubility”.

Source of the values: US6384027B1, “Phthalocyanine analogs” (QinetiQ Limited, priority 1997, dated 2002).
